Test results from patent US7511284B2, “Photostabilisation of fluorescent dyes” (International University Bremen GmbH, priority 2004, dated 2009).
Marks after values point to notes of the source that are not given here.

Tests used:
[1] = Absorption and fluorescence maxima with and without CB7; format: physicochemical; design: unit not given here
Excerpt: Addition of cucurbiturils leads to the formation of complexes with fluorescent dyes, which have changed photophysical properties, see examples in Table 3.

[2] = Fluorescence quantum yield and brightness with and without CB7; format: physicochemical; design: ε × φf (brightness): unit not given beside the values
[3] = Photobleaching of aqueous dye solution under 532-nm Nd-YAG laser irradiation, monitored by UV-Vis absorption
Method: The addition of cucurbituril (mixture of a plurality of cucurbiturils, wherein cucurbit[7]uril (formula (D), also known as CB7) was the predominant species according to mass spectrometry, with cucurbit[5]uril as a detectable impurity), concentration of cucurbit[7]uril 1-2 mM, mixture prepared as described in C. […] The photostabilisation of the fluorescent dye stabilised by cucurbituril (CB7) was monitored by the characteristic visible absorption band with a Varian Cary 50 UV-VIS spectrophotometer, based on a cucurbituril-free, optically adapted (at 532 nm) solution of the fluorescent dye. The UV-Vis spectra were recorded at different irradiation times (FIG. 1), and the decreasing absorption (A) at 532 nm was plotted against the pertinent function log([10^A0−1]/[10^A−1]). […] The concentrations with and without cucurbit[7]uril are not identical, but were so chosen that the absorbance at 532 nm was identical at the start of irradiation. The concentration of rhodamine 6G was lower in samples containing cucurbit[7]uril than in samples without cucurbit[7]uril owing to a higher extinction coefficient.
The quantum yield of the photobleaching was determined by means of the initial linear region of the graph (FIG. 2) of the ratio of the gradients S(D)/S(D+CB7)=εDφb(D)/[εD+CB7φb(D+CB7)], wherein εD+CB7 and εD are the extinction coefficient of the dye (D) with and without CB7 at the irradiation wavelength of 532 nm.
The chosen stabilisation factor was the ratio of the quantum yields of the photobleaching in the absence and presence of CB7.

[4] = Photostabilisation of fluorescent dyes by cucurbiturils (preliminary tests, tests carried out hitherto); details: for photostabilisation by the use of a cucurbituril: in particular cucurbit[7]uril; for photostabilisation of conventional fluorescent dyes by the cucurbituril: preliminary tests, in particular xanthene and cyanine fluorescent dyes
[5] = Decrease of fluorescence intensity of dye solutions stored in daylight (ambient light); format: physicochemical; details: for Stabilisation factor: with 1 mM CB7, daylight; for fluorescence intensity after exposure to daylight: 300 hours
Method: As an alternative, the decrease in the fluorescence intensity of the above-described solutions was determined by observing their fluorescence (Cary Eclipse Fluorometer, Varian) when the solutions were stored in daylight (ambient light). The fluorescence intensity remained unchanged over the observation period for the solution containing cucurbituril, whereas it felt markedly for the cucurbituril-free solution (FIG. 3), with approximate half-lives of about 80 to 390 hours, depending on the sample vessel.

[6] = Decrease in photon count rate in fluorescence correlation spectroscopy (FCS) on a confocal microscope; format: physicochemical; details: for relative photon count rate: irradiation for 2000 seconds; for count rate present: after 30 minutes irradiation, 10 nM dye
Method: Aqueous solutions of fluorescent dyes (10 nM) with and without cucurbit[7]uril (1 mM) were also studied by fluorescence correlation spectroscopy (FCS) on a confocal microscope (Carl Zeiss LSM 510 Confocor 2), which is used for several applications relevant for biology, biochemistry and spectroscopy. 400 μl of each solution were transferred to an 8-chamber cover glass system and irradiated with the light of a CW laser. The decrease in the count rate, which is directly proportional to the mean fluorescence intensity of the sample, was measured against the irradiation time. […] Considerable photostabilisation can again be seen, because without cucurbit[7]uril less than 30%, but with cucurbit[7]uril still more than 90% of the count rate is present after 30 minutes. The observed photostabilisation factors are contained in Table 2 (footnotes b, c, d).
The photon count rate in samples containing cucurbit[7]uril fell during irradiation for 2000 seconds only to about 95%, while the […] of the cucurbit[7]uril-free sample fell to about 25% of the initial value in the same time.

| photostabilisation by the use of a cucurbituril [4] | Molecule | λabs max ([1]; with 1 mM CB7) | λem max ([1]; with 1 mM CB7) | λabs max ([1]; without CB7) | λem max ([1]; without CB7) | ε × φf (brightness) ([2]; with 1 mM CB7) | φf ([2]; with 1 mM CB7) | ε × φf (brightness) ([2]; without CB7) | φf ([2]; without CB7) | further results |
| --- | --- | --- | --- | --- | --- | --- | --- | --- | --- | --- |
|  | Cc1cc(=O)oc2c3c4c(cc12)CCCN4CCC3 [Coumarin-102, coumarin 102] | 404.6 | 476.0 | 392.6 | 489.0 | 17807 | 0.754 | 14388 | 0.66 | absorbance (extinction coefficient) and fluorescence quantum yield (intensity) in a complex with cucurbituril versus without [2]: greater |
| Particularly good photostabilisation | CCN=c1cc2oc3cc(NCC)c(C)cc3c(-c3ccccc3C(=O)OCC)c-2cc1C.Cl [Rhodamine 6G, rhodamine 6G] | 534.6 | 555.0 | 526.0 | 552.0 | 81594 | 0.883 | 71218 | 0.89 | Stabilisation factor ([3]; 1 mM CB7, 3 μM dye solutions, 532-nm laser light (1.3 W, 10 Hz) of a Nd-YAG laser): 30.0^a; Stabilisation factor ([3]; with 1 mM CB7, high laser power (2.1 W), 532 nm): 7.5*; Stabilisation factor ([3]; with 1 mM CB7, low laser power (1.3 W), 532 nm): 30*; number of absorption cycles before a molecule decomposes ([3]; with addition of cucurbit[7]uril (CB7 solution)): 22 million; number of absorption cycles before a molecule decomposes ([3]; without cucurbit[7]uril): 0.8 million; Stabilisation factor ([5]; quartz cuvette): >500*; Stabilisation factor ([5]; screw-top glass bottle): >5000*; fluorescence intensity after exposure to daylight ([5]; with cucurbit[7]uril in glass bottles): hardly decreases at all; fluorescence intensity after exposure to daylight ([5]; without cucurbit[7]uril, glass bottle): 60 % of the original value; fluorescence intensity after exposure to daylight ([5]; without cucurbit[7]uril, quartz cuvettes): 90 % of the original value |
|  | O=C1N2CN3C(=O)N4CN5C(=O)N6CN7C(=O)N8CN9C(=O)N%10CN1C1C2N2CN%11C(=O)N(CN%12C(=O)N(CN%13C(=O)N(CN%14C(=O)N(CN1C2=O)C%10C%149)[C@H]8[C@H]7%13)[C@H]6[C@H]5%12)C4C3%11 (some centres unmarked) [cucurbit[5]uril] |  |  |  |  |  |  |  |  | photostabilisation of conventional fluorescent dyes by the cucurbituril [4]: best photostabilisation |
| Particularly good photostabilisation | Cc1c(C)c2cc3c4c(c2oc1=O)CCCN4CCC3 [coumarin 39] |  |  |  |  |  |  |  |  |  |
| Particularly good photostabilisation | rhodamine 123 | 502.6 | 532.0 | 500.0 | 525.0 | 24097 | 0.362 | 57470 | 0.83 | number of absorption cycles before a molecule decomposes ([3]; without cucurbit[7]uril): 1.6 million |
|  | O=C1N2CN3C(=O)N4CN5C(=O)N6CN7C(=O)N8CN9C(=O)N%10CN%11C(=O)N%12CN%13C(=O)N%14CN%15C(=O)N%16CN1C1C2N2CN%17C(=O)N(CN%18C(=O)N(CN%19C(=O)N(CN%20C(=O)N(CN%21C(=O)N(CN%22C(=O)N(CN%23C(=O)N(CN1C2=O)C%16C%15%23)C%14C%13%22)C%12C%11%21)C%10C9%20)C8C7%19)C6C5%18)C4C3%17 (centres unmarked) [cucurbit[8]uril] |  |  |  |  |  |  |  |  | photostabilisation of conventional fluorescent dyes by the cucurbituril [4]: best photostabilisation |
|  | CCN1C(=CC=CC=CC2=[N+](CC)c3ccc(S(=O)(=O)[O-])cc3C2(C)C)C(C)(C)c2cc(S(=O)(=O)O)ccc21 [Cyanine 5, cyanine 5] | 642.2 | 657.0 | 642.0 | 660.0 | 51000 | 0.456 | 37260 | 0.27 | absorbance (extinction coefficient) and fluorescence quantum yield (intensity) in a complex with cucurbituril versus without [2]: greater |
|  | O=C1N2CN3C(=O)N4CN5C(=O)N6CN7C(=O)N8CN9C(=O)N%10CN%11C(=O)N%12CN1C1C2N2CN%13C(=O)N(CN%14C(=O)N(CN%15C(=O)N(CN%16C(=O)N(CN%17C(=O)N(CN1C2=O)C%12C%11%17)C%10C9%16)C8C7%15)C6C5%14)C4C3%13 (centres unmarked) [cucurbit[6]uril] |  |  |  |  |  |  |  |  | photostabilisation of conventional fluorescent dyes by the cucurbituril [4]: best photostabilisation |
|  | O=C1OC2(c3ccc(O)cc3Oc3cc(O)ccc32)c2ccccc21 [fluorescein] |  |  |  |  |  |  |  |  | improvement in photostability by cucurbiturils according to formulae (B) to (E) ([4]; anionic fluorescent dye): only a slight or no improvement |
|  | CCN1C(=CC=CC2=[N+](CC)c3ccc(S(=O)(=O)[O-])cc3C2(C)C)C(C)(C)c2cc(S(=O)(=O)O)ccc21 [Cyanine 3, cyanine 3] | 558.6 | 571.0 | 544.6 | 560.0 | 11502 | 0.108 | 18000 | 0.15 |  |

| Molecule | photostabilisation by the use of a cucurbituril [4] | λabs max ([1]; with 1 mM CB7) | λem max ([1]; with 1 mM CB7) | λabs max ([1]; without CB7) | λem max ([1]; without CB7) | ε × φf (brightness) ([2]; with 1 mM CB7) | φf ([2]; with 1 mM CB7) | ε × φf (brightness) ([2]; without CB7) | φf ([2]; without CB7) | further results |
| --- | --- | --- | --- | --- | --- | --- | --- | --- | --- | --- |
| CN(C)c1ccc2c(-c3ccccc3C(=O)[O-])c3ccc(N(C)C)cc3[o+]c2c1 [Tetramethylrhodamine, tetramethylrhodamine] | Particularly good photostabilisation | 558.6 | 582.0 | 552.6 | 577.0 | 20277 | 0.271 | 17553 | 0.20 | Stabilisation factor ([6]; 1 mM CB7, 10 nM dye solutions, 514-nm laser light (30 mW, cw), FCS, after 35 minutes, via photon count rate): 4.3^b; relative photon count rate ([6]; cucurbit[7]uril-free sample): about 25 % of the initial value; count rate present ([6]; with cucurbit[7]uril (1 mM)): more than 90%; relative photon count rate ([6]; with cucurbit[7]uril): about 95 % of the initial value; count rate present ([6]; without cucurbit[7]uril): less than 30% |
